Experimental data taken from ChEMBL document CHEMBL1201862, “PubChem BioAssay data set” (2004).
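Assay format: 96-well plates, 48-hour exposure. The concentration for 50% growth inhibition is given as GI50.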 Active and inactive are the calls of the source. Rule as the data show it: active = GI50 up to about 1.1 µM and inactive = higher.

What was measured:
Assay in all cases: DTP human tumour cell line panel, 48 h
BT-549 = test system: BT-549
HT-29 = test system: HT-29
UO-31 = test system: UO-31
PC-3 = test system: PC-3
UACC-257 = test system: UACC-257
SF-539 = test system: SF-539
NCI/ADR-RES = test system: NCI/ADR-RES
SNB-75 = test system: SNB-75
SF-268 = test system: SF-268
SK-OV-3 = test system: SK-OV-3
MCF7 = test system: MCF7
SK-MEL-28 = test system: SK-MEL-28
A498 = test system: A498
NCI-H460 = test system: NCI-H460
CAKI-1 = test system: CAKI-1
HCT-116 = test system: HCT-116
K562 = test system: K562
SW-620 = test system: SW-620
HL-60 = test system: HL-60
Hs-578T = test system: Hs-578T

| SMILES | GI50 (BT-549) | GI50 (HT-29) | GI50 (UO-31) | GI50 (PC-3) | GI50 (UACC-257) | GI50 (SF-539) | GI50 (NCI/ADR-RES) | GI50 (SNB-75) | GI50 (SF-268) | GI50 (SK-OV-3) | GI50 (MCF7) | GI50 (SK-MEL-28) | GI50 (A498) | GI50 (NCI-H460) | GI50 (CAKI-1) | GI50 (HCT-116) | GI50 (K562) | GI50 (SW-620) | GI50 (HL-60) | GI50 (Hs-578T) |
| --- | --- | --- | --- | --- | --- | --- | --- | --- | --- | --- | --- | --- | --- | --- | --- | --- | --- | --- | --- | --- |
| COc1ccn(CC(=O)c2cc3ccccc3[nH]2)c(=O)n1 | > 100 µM (inactive) | > 100 µM (inactive) | > 100 µM (inactive) | > 100 µM (inactive) | > 100 µM (inactive) | > 100 µM (inactive) | > 100 µM (inactive) | > 100 µM (inactive) | > 100 µM (inactive) | > 100 µM (inactive) | > 100 µM (inactive) | > 100 µM (inactive) | > 100 µM (inactive) | > 100 µM (inactive) | > 100 µM (inactive) | > 100 µM (inactive) | > 100 µM (inactive) | > 100 µM (inactive) | 39.2 µM (inactive) |  |
| CC1(c2nc3ccccc3[nH]2)CCC(C(N)=O)C(C)(C)O1 (stereo not drawn) | > 100 µM (inactive) | > 100 µM (inactive) | > 100 µM (inactive) | > 100 µM (inactive) | > 100 µM (inactive) | > 100 µM (inactive) | > 100 µM (inactive) | > 100 µM (inactive) | > 100 µM (inactive) | 55.2 µM (inactive) | > 100 µM (inactive) | > 100 µM (inactive) |  |  | > 100 µM (inactive) | > 100 µM (inactive) | > 100 µM (inactive) | > 100 µM (inactive) | > 100 µM (inactive) | > 100 µM (inactive) |
| Cc1ccc(N/C(SCc2ccccc2)=C(\C(Cl)=C(Cl)Cl)[N+](=O)[O-])c(C)c1 | 19.2 µM (inactive) | 29.8 µM (inactive) | 20 µM (inactive) | 37.2 µM (inactive) | 43.9 µM (inactive) | 19.9 µM (inactive) | 21.2 µM (inactive) | 29.2 µM (inactive) | 14.3 µM (inactive) | 39.8 µM (inactive) | 35.3 µM (inactive) | 23.8 µM (inactive) | 22.2 µM (inactive) | 41.7 µM (inactive) | 18.6 µM (inactive) | 16.8 µM (inactive) |  | 15.6 µM (inactive) |  | 39.1 µM (inactive) |
| COC(=O)c1ccccc1/C=C1\Cc2c(C)cc(C)cc2C1=O | > 100 µM (inactive) | > 100 µM (inactive) | > 100 µM (inactive) | > 100 µM (inactive) | > 100 µM (inactive) | > 100 µM (inactive) |  | > 100 µM (inactive) | > 100 µM (inactive) |  | > 100 µM (inactive) | > 100 µM (inactive) | > 100 µM (inactive) | > 100 µM (inactive) | > 100 µM (inactive) | > 100 µM (inactive) | > 100 µM (inactive) | > 100 µM (inactive) | > 100 µM (inactive) | > 100 µM (inactive) |
| COc1ccc(NC(=O)NNS(=O)(=O)c2ccc(C)cc2)cc1 |  | > 100 µM (inactive) | > 100 µM (inactive) | 71 µM (inactive) | > 100 µM (inactive) | > 100 µM (inactive) | > 100 µM (inactive) | 29.4 µM (inactive) | > 100 µM (inactive) | > 100 µM (inactive) | > 100 µM (inactive) | > 100 µM (inactive) | > 100 µM (inactive) | > 100 µM (inactive) | > 100 µM (inactive) | > 100 µM (inactive) | > 100 µM (inactive) | > 100 µM (inactive) | > 100 µM (inactive) | > 100 µM (inactive) |
| CCCCCCCCCC[C@@H](O)[C@H]1CC[C@@H]([C@H]2CC[C@H]([C@H](O)CCCCCCCCCC[C@@H]3CC(CC(C)=O)C(=O)O3)O2)O1 (stereo partly drawn) | 2.48 µM (inactive) | 3.42 µM (inactive) | 2.49 µM (inactive) | 4.05 µM (inactive) | 2.14 µM (inactive) | 7.05 µM (inactive) | 0.167 µM (active) | 1.42 µM (inactive) | 2.1 µM (inactive) |  | 1.31 µM (inactive) | 3.46 µM (inactive) | 38 µM (inactive) | 0.147 µM (active) | 31 µM (inactive) | 2.68 µM (inactive) | 1.84 µM (inactive) | 4.4 µM (inactive) |  | 1.04 µM (active) |
| CN(C)CCn1c(=O)c2ccc3c4c(nn3CCN(C)C)c3cc(O)ccc3n(c1=O)c24 | 0.879 µM (active) | < 0.01 µM (active) | 0.0927 µM (active) | 0.0659 µM (active) | 0.308 µM (active) | 1.29 µM (inactive) | 0.783 µM (active) | 0.059 µM (active) |  |  |  | 0.548 µM (active) | 0.198 µM (active) | < 0.0411 µM (active) | 0.0501 µM (active) | < 0.0225 µM (active) | 0.0459 µM (active) | 0.0365 µM (active) | 0.0419 µM (active) |  |
| CC(=O)NC1C(OCc2ccccc2)OC(CO)C(O)C1OC(C)C(=O)NC(C)C(=O)N[C@@H](CCC(=O)OCCCNC1c2ccccc2Nc2cccc([N+](=O)[O-])c21)C(N)=O (stereo partly drawn) |  | < 0.01 µM (active) | < 0.01 µM (active) | 0.0266 µM (active) | 0.0123 µM (active) | < 0.01 µM (active) | 0.0145 µM (active) | 0.0135 µM (active) | < 0.01 µM (active) | 0.0194 µM (active) | 0.0124 µM (active) | < 0.01 µM (active) | < 0.01 µM (active) | < 0.01 µM (active) | < 0.01 µM (active) | < 0.01 µM (active) | < 0.01 µM (active) | < 0.01 µM (active) | < 0.0117 µM (active) | 0.0216 µM (active) |
| COc1ccccc1NCC(=O)Nn1c(C)nc2ccc(S(=O)(=O)Nc3ccccc3OC)cc2c1=O | > 100 µM (inactive) | 43.8 µM (inactive) | > 100 µM (inactive) | 88.5 µM (inactive) | > 100 µM (inactive) | > 100 µM (inactive) | > 100 µM (inactive) | > 100 µM (inactive) | > 100 µM (inactive) | > 100 µM (inactive) | 63 µM (inactive) | > 100 µM (inactive) |  | > 100 µM (inactive) | > 100 µM (inactive) | > 100 µM (inactive) | 80.4 µM (inactive) | 65.2 µM (inactive) | 47.1 µM (inactive) | > 100 µM (inactive) |
| O=C1NCc2ccccc2S(=O)(=O)n2cccc21 | > 100 µM (inactive) | > 100 µM (inactive) | > 100 µM (inactive) | > 100 µM (inactive) | > 100 µM (inactive) | > 100 µM (inactive) | > 100 µM (inactive) | > 100 µM (inactive) | > 100 µM (inactive) | > 100 µM (inactive) | > 100 µM (inactive) | > 100 µM (inactive) |  | > 100 µM (inactive) | > 100 µM (inactive) | 63.1 µM (inactive) |  | > 100 µM (inactive) | > 100 µM (inactive) | > 100 µM (inactive) |
| O=C1c2sc(-c3ccc(Cl)cc3)cc2-n2cccc21 | > 100 µM (inactive) | > 100 µM (inactive) | > 100 µM (inactive) | > 100 µM (inactive) | > 100 µM (inactive) |  | > 100 µM (inactive) | > 100 µM (inactive) | > 100 µM (inactive) | > 100 µM (inactive) | > 100 µM (inactive) | > 100 µM (inactive) | > 100 µM (inactive) | > 100 µM (inactive) | > 100 µM (inactive) | > 100 µM (inactive) | > 100 µM (inactive) | > 100 µM (inactive) |  | > 100 µM (inactive) |
| O=S(=O)(c1ccc(Br)cc1)n1c2ccc(Br)cc2c2nc3ccccc3nc21 | > 100 µM (inactive) | > 100 µM (inactive) | > 100 µM (inactive) | > 100 µM (inactive) | > 100 µM (inactive) |  | > 100 µM (inactive) | 25.9 µM (inactive) | 85.9 µM (inactive) | 52 µM (inactive) |  | > 100 µM (inactive) | > 100 µM (inactive) | > 100 µM (inactive) | > 100 µM (inactive) | > 100 µM (inactive) | > 100 µM (inactive) | > 100 µM (inactive) |  | 47.6 µM (inactive) |
| COC(=O)/C1=C/c2c([nH]c3ccccc23)/C(C(=O)OC)=C\c2c1[nH]c1ccccc21 [CAULERPIN] | 25.6 µM (inactive) |  | 7.6 µM (inactive) |  | > 50 µM (inactive) | 33.5 µM (inactive) | > 50 µM (inactive) |  | 19.5 µM (inactive) | > 50 µM (inactive) | 10.3 µM (inactive) |  | 39.2 µM (inactive) | 13.3 µM (inactive) | 37.9 µM (inactive) | 14.2 µM (inactive) |  | 34.4 µM (inactive) |  | 16.8 µM (inactive) |
| Cc1cc(C)c(N[S+]([O-])c2cccc([N+](=O)[O-])c2)c(C)c1 (stereo not drawn) | > 100 µM (inactive) | > 100 µM (inactive) | > 100 µM (inactive) | > 100 µM (inactive) | > 100 µM (inactive) | > 100 µM (inactive) | > 100 µM (inactive) |  | > 100 µM (inactive) |  | > 100 µM (inactive) | > 100 µM (inactive) | > 100 µM (inactive) | > 100 µM (inactive) |  |  | > 100 µM (inactive) | > 100 µM (inactive) | > 100 µM (inactive) |  |
| O=c1c(O)c(-c2ccc(O)cc2O)oc2cc(O)cc(O)c12 [MORIN] |  | > 100 µM (inactive) | > 100 µM (inactive) | > 100 µM (inactive) | > 100 µM (inactive) | > 100 µM (inactive) | > 100 µM (inactive) | > 100 µM (inactive) | > 100 µM (inactive) |  | > 100 µM (inactive) | > 100 µM (inactive) |  | > 100 µM (inactive) | > 100 µM (inactive) | 86.1 µM (inactive) | > 100 µM (inactive) | > 100 µM (inactive) | > 100 µM (inactive) | > 100 µM (inactive) |
